Results: patent US6960587B2, “Condensed pyrazindione derivatives as PDE inhibitors” (Lilly Icos LLC, priority 2000, dated 2005)
Counter-ions that a name gives are not always drawn.

Target: T1, recombinant human PDE5 (Homo sapiens, UniProt O76074)
T1 construct: host or cells: Saccharomyces cerevisiae strain BJ2-54 (ATCC 74465)
Test: PDE5 inhibition, cGMP-PDE one-step assay
Assay type: biochemical
Conditions: in vitro

IC50 [µM]	SMILES
3.24	CN1CC(=O)N2[C@H](c3ccc4c(c3)OCO4)c3[nH]cnc3C[C@@H]2C1=O (racemic) [Example 1, (+−, cis)-4-Benzo[1,3]dioxol-5-yl-7-methyl-3,4,6,7,8a,9-hexahydro-1,3,4a,7-tetraaza-cyclopenta[b]naphthalene-5,8-dione hydrochloride]
0.718	COc1cc2c(cc1OC)[C@@H](c1ccc3c(c1)OCO3)N1C(=O)CN(C)C(=O)[C@@H]1C2 [Example 10]
